According to paper PMC10035370, “Targeting Tumor Angiogenesis with the Selective VEGFR-3 Inhibitor EVT801 in Combination with Cancer Immunotherapy” (Cancer Research Communications, 2022):

Tested on: 4T1 tumors
Experiment: 4T1 mammary carcinoma mouse model, with anti-CTLA-4
Type: in vivo, mice
Protocol: The 4T1 mammary carcinoma mouse models were used as reported previously ([26]). Briefly, 1 × 10^5 4T1 cells were implanted into mammary fat pads of BALB/c mice. […] Tumors were measured two to three times weekly with calipers. The tumor volume (V) was calculated using the formula V = 0.52 × a^2 × b (a: smallest tumor diameter; b: largest tumor diameter). The tumors, lungs, and axillary lymph nodes were removed at day 21 for treatment with anti-PD-1, and day 28 for treatment with anti-CTLA-4. The tumors and the lungs were embedded in paraffin for histology studies. Intraperitoneal injection (10 mg/kg of antibody diluted at 1 mg/mL) was performed at day 6, day 11, and day 16 for treatment with anti-PD-1, and at day 6, day 11, day 16, and day 21 for treatment with anti-CTL-4 by using a 26G needle fitted to a plastic syringe in the right lower quarter of mice abdomen. The metastatic scoring was determined as follows: (0) no metastasis; ([1]) 1 to 20 metastases < 50 μm; ([2]) between 21 and 50 metastases < 50 μm; ([3]) 1 or more metastases > […]; ([4]) 1 or more metastases > […].
Whole blood samples were treated twice with ACK lysing buffer (Thermo Fisher Scientific, A1049201) to lyse red blood cells. Cell suspension were incubated for 15 minutes on ice in blocking buffer (FACS buffer: PBS 1 X, 1% FBS, 5 mmol/L Ethylene Diamine Tetra acetic Acid (EDTA) containing 3% rat serum, 3% mouse serum, 1:660 FC blocking antibody). Cell suspension were stained with an antibody mix either for myeloid-derived suppressor cell (MDSC) staining [anti-CD45 PE-Vio770 (Miltenyi Biotec, 130-110-799), anti-CD11b APC (eBioscience, 17-0112-82), anti-Ly6C AF700 (BD, 561237), anti-Ly6G BV421 (BD, 562737), anti-F4/80 BV510 (BD, 743280), anti-IA/I-E (MHCII), PercpCy5.5 (BD, 562363), anti-CD124 PE (BioLegend, 144804) or anti-rat IgG2bPE (Ozyme, BLE400608) isotype control, and the green fluorescent reactive dye (Thermo Fisher Scientific, L34960)], or for T-cell staining [anti-CD45 PE-Vio770 (Miltenyi Biotec, 130-110-799), anti-Thy1 APC-Cy7 (BioLegend, 105328), anti-CD4 PercpVio-700 (Miltenyi Biotec, 130-109-497), anti-CD8 BV510 (BD, 563068), anti-CD69 BV421 (BD 562920) or anti-rat IgG1a-BV421 (BD, 562919), and the green fluorescent reactive dye (Thermo Fisher Scientific, L34960)]. After incubation for 30 minutes at 4°C in the dark, cells were washed and suspended in FACS buffer. A total of 50 μL of CountBright Absolute counting beads (Thermo Fisher Scientific, C36950) were added just before cell acquisition on a FACS Fortessa X20 (Becton Dickinson). Analysis was performed with the FlowJo software. For calculation of cell concentration, the following formula was used: Concentration of cells/μL = (number of cell events/number of bead events) × (assigned bead count of the lot/volume of analyzed sample). Monocytic MDSCs (M-MDSC) were characterized as MHC-II^neg/CD11b^+/Ly6C^+/Ly6G^neg, whereas polymorphonuclear MDSCs (PMN-MDSC) were characterized as MHC-II^neg/CD11b^+/Ly6C^neg/Ly6G^+, as described previously ([31]). Among those populations, CD124^+ cells were considered as the activated subpopulations ([32]).
Blood was centrifuged at 8,000 rpm, for 5 minutes, at 4°C and the plasma was collected by harvesting the supernatant and stored at −80°C. Plasma samples were thawed at 4°C extemporaneously for MesoScale Discovery (MSD) analysis on a U-PLEX-4 Assay coated plate (U-PLEX Mouse KC, U-PLEX Mouse MIP-1α/CCL3, U-PLEX Mouse MIP-1β/CCL4, U-PLEX Mouse Rantes/CCL5 K15069L-1, Meso Scale Discovery). Analysis was performed following manufacturer's instructions.

[1] = endpoint, 30 mg/kg twice per day

CCn1c(N)c(-c2ncc[nH]2)c(=O)c2ccc(C#C[C@@](C)(O)COC)nc21 [EVT801]
reduction in circulation of each activated (CD124+) MDSC subpopulation (PMN-MDSCs, M-MDSCs) in the blood (14 hours after the last dosing): 2 fold | increase in number of circulating CD8+ T cells (endpoint): 30% | change in circulating CCL4 levels [1]: −50% | change in circulating CCL5 levels [1]: −30% | circulating CCL3 levels [1]: unchanged | T/C ratio, tumor growth (orthotopic, EVT801 30 mg/kg twice per day, anti-CTLA-4 twice per week, or both): 53%
